Patent publication EP4722201A1, “3-PHENYLISOXAZOLINE-5-CARBOXAMIDE COMPOUND, AND PREPARATION METHOD THEREFOR, HERBICIDAL COMPOSITION THEREOF AND USE THEREOF” (Jiangsu Flag Chemical Industry Co., Ltd, priority 2023, dated 2024)

What was measured:
Experiment in all cases: Indoor herbicide activity determination, Seed Treatment; pre-emergence (soil spray)
Type in all cases: in vivo
[1] = test system: Eleusine indica
Description: (§1) The testing method for herbicide activity of the compound of the present invention was as follows:
(§2) Seed Treatment; pre-emergence: quantitative seeds of gramineous weeds (Echinochloa crusgalli, Eleusine indica, Digitaria sanguinalis, Alopecurus japonicus, Beckmannia syzigachne, Leptochloa chinensis, Polypogon fugax, Alopecurus aequalis, Lolium multiflorum, Poa annua, Aegilops tauschii, Avena fatua, Alopecurus myosuroides, Alopecurus japonicus and Alopecurus aequalis), broad-leaved weeds (Eclipta prostrata, Amaranthus retroflexus, Rorippa indica, Malachium aquaticum, Veronica polita, Conyza canadensis, Sesbania cannabina, Sagittariatrifolia and Schoenoplectiella juncoides), and Cyperus iria were sown in plastic pots having a diameter of 7 cm and holes at the bottom and filled with nutrient soil (sandy soil, pH 6.1, organic matter 1%) respectively, the seeds were covered with an appropriate amount of soil after being sown, then the soil was wetted with water from the bottom, the seeds were cultured in a constant-temperature illuminated culture room for 24 h, and the soil was sprayed by using a 3WP-2000 traveling spray tower produced by the Nanjing Institute of Agricultural Mechanization of the Ministry of Agriculture, where a rotational speed of a main shaft was 96 mm/r, a spray height was 300 mm, an effective spraying range of a nozzle was 350 mm, a spray area was 0.35 m^2, and a flow rate at the nozzle was 390 mL/min.
(§3) Post-emergence: an appropriate quantity of seeds of gramineous weeds (Echinochloa crusgalli, Eleusine indica, Digitaria sanguinalis, Alopecurus japonicus, Beckmannia syzigachne, Leptochloa chinensis, Polypogon fugax, Alopecurus aequalis, Lolium multiflorum, Poa annua, Aegilops tauschii, Avena fatua, Alopecurus myosuroides, Alopecurus japonicus and Alopecurus aequalis), broad-leaved weeds (Eclipta prostrata, Amaranthus retroflexus, Rorippa indica, Malachium aquaticum, Veronica polita, Conyza canadensis, Sesbania cannabina, Sagittariatrifolia and Schoenoplectiella juncoides), and Cyperus iria were sown in plastic pots having a diameter of 7 cm and holes at the bottom and filled with nutrient soil (sandy soil, pH 6.1, organic matter 1%) respectively, the seeds were covered with an appropriate amount of soil after being sown, then the soil was wetted with water from the bottom, the seeds were cultured in a constant-temperature illuminated culture room until a 2-4 leaf stage, and stems and leaves underwent spray treatment. After the treatment, the test materials were placed in a laboratory and cultured in the constant-temperature illuminated culture room after the liquid was naturally dry in the shade, and results were determined 21 days later. Inhibition rate of fresh weight % = (1−(fresh weight of treated plants)/(fresh weight of control plants)) × 100% [formula]

[2] = test system: Alopecurus japonicus
Description: as §1, §2, §3

[3] = test system: Alopecurus myosuroides
Description: as §1, §2, §3

[4] = test system: Eclipta prostrata; details: read-out: Herbicidal activities (inhibition rate) Eclipta prostrata; for inhibition at 120 g/ha: 120 g a.i./ha; for inhibition at 60 g/ha: 60 g a.i./ha
Description: as §1, §2, §3

[5] = test system: Cyperus iria; details: read-out: Herbicidal activities (inhibition rate) Cyperus iria; for inhibition at 120 g/ha: 120 g a.i./ha; for inhibition at 60 g/ha: 60 g a.i./ha
Description: as §1, §2, §3

[6] = test system: Lolium multiflorum
Description: as §1, §2, §3

[7] = test system: Digitaria sanguinalis; details: read-out: Herbicidal activities (inhibition rate) Digitaria sanguinalis; for inhibition at 60 g/ha: 60 g a.i./ha
Description: as §1, §2, §3

[8] = test system: Leptochloa chinensis
Description: as §1, §2, §3

[9] = test system: Aegilops tauschii; details: read-out: Herbicidal activities (inhibition rate) Aegilops tauschii
Description: as §1, §2, §3

SMILES | Herbicidal activities, Eleusine indica (inhibition rate class) ([1]; Dosage 120 g a.i./ha) | Herbicidal activities, Alopecurus japonicus (inhibition rate class) ([2]; Dosage 120 g a.i./ha) | Herbicidal activities, Alopecurus myosuroides (inhibition rate class) ([3]; Dosage 120 g a.i./ha) | inhibition at 60 g/ha [4] [%] | inhibition at 60 g/ha [5] [%] | Herbicidal activities, Lolium multiflorum (inhibition rate class) ([6]; Dosage 120 g a.i./ha) | Herbicidal activities, Leptochloa chinensis (inhibition rate class) ([8]; Dosage 120 g a.i./ha) | inhibition at 60 g/ha [7] [%] | also measured
C=CC1(C(=O)N[C@H]2C[C@@H](C(=O)OC)C2)CC(c2cc(F)cc(F)c2)=NO1 (stereo partly shown) [I-3] |  |  |  |  |  |  |  |  | Herbicidal activities, Eleusine indica (inhibition rate class) ([1]; Dosage 240 g a.i./ha): A (A indicates that the inhibition rate was greater than or equal to 80% to 100%); Herbicidal activities, Alopecurus japonicus (inhibition rate class) ([2]; Dosage 240 g a.i./ha): A (A indicates that the inhibition rate was greater than or equal to 80% to 100%); Herbicidal activities, Alopecurus myosuroides (inhibition rate class) ([3]; Dosage 240 g a.i./ha): A (A indicates that the inhibition rate was greater than or equal to 80% to 100%); inhibition at 120 g/ha [4]: 80 to 100%; inhibition at 120 g/ha [5]: 80 to 100%; Herbicidal activities, Lolium multiflorum (inhibition rate class) ([6]; Dosage 240 g a.i./ha): A (A indicates that the inhibition rate was greater than or equal to 80% to 100%); inhibition at 120 g/ha ([7]; 120 g a.i./ha): 80 to 100%; Herbicidal activities, Leptochloa chinensis (inhibition rate class) ([8]; Dosage 240 g a.i./ha): A (A indicates that the inhibition rate was greater than or equal to 80% to 100%)
C=C[C@]1(C(=O)N[C@H]2C[C@@H](C(=O)NOC(C)C)C2)CC(c2cc(F)cc(Cl)c2)=NO1 [I-36] | A (A indicates that the inhibition rate was greater than or equal to 80% to 100%) | A (A indicates that the inhibition rate was greater than or equal to 80% to 100%) | A (A indicates that the inhibition rate was greater than or equal to 80% to 100%) | 60 to 80 | 60 to 80 | B (B indicates that the inhibition rate was greater than or equal to 60% to less than 80%) | A (A indicates that the inhibition rate was greater than or equal to 80% to 100%) |  | inhibition at 60 g/ha ([9]; 60 g a.i./ha): 60 to 80%
C=C[C@]1(C(=O)N[C@H]2C=C[C@@H](C(=O)O)C2)CC(c2cc(F)cc(C(F)(F)F)c2)=NO1 [I-426] | A (A indicates that the inhibition rate was greater than or equal to 80% to 100%) | A (A indicates that the inhibition rate was greater than or equal to 80% to 100%) | A (A indicates that the inhibition rate was greater than or equal to 80% to 100%) | 60 to 80 | 80 to 100 | A (A indicates that the inhibition rate was greater than or equal to 80% to 100%) | A (A indicates that the inhibition rate was greater than or equal to 80% to 100%) | 80 to 100 | 
C=C[C@]1(C(=O)N[C@H]2C=C[C@@H](C(=O)OC)C2)CC(c2cc(F)cc(C(F)(F)F)c2)=NO1 [I-428] | A (A indicates that the inhibition rate was greater than or equal to 80% to 100%) | A (A indicates that the inhibition rate was greater than or equal to 80% to 100%) | A (A indicates that the inhibition rate was greater than or equal to 80% to 100%) | 60 to 80 | 80 to 100 | A (A indicates that the inhibition rate was greater than or equal to 80% to 100%) | A (A indicates that the inhibition rate was greater than or equal to 80% to 100%) | 80 to 100 | 
C=C[C@]1(C(=O)N[C@H]2C=C[C@@H](C(=O)OCCCOC)C2)CC(c2cc(F)cc(C(F)(F)F)c2)=NO1 [I-436] | A (A indicates that the inhibition rate was greater than or equal to 80% to 100%) | A (A indicates that the inhibition rate was greater than or equal to 80% to 100%) | A (A indicates that the inhibition rate was greater than or equal to 80% to 100%) | 60 to 80 | 60 to 80 | B (B indicates that the inhibition rate was greater than or equal to 60% to less than 80%) | A (A indicates that the inhibition rate was greater than or equal to 80% to 100%) | 80 to 100 | 
C=C[C@]1(C(=O)N[C@H]2C=C[C@@H](C(=O)OCCC)C2)CC(c2cc(F)cc(C(F)(F)F)c2)=NO1 [I-437] | A (A indicates that the inhibition rate was greater than or equal to 80% to 100%) | A (A indicates that the inhibition rate was greater than or equal to 80% to 100%) | A (A indicates that the inhibition rate was greater than or equal to 80% to 100%) | 60 to 80 | 80 to 100 | A (A indicates that the inhibition rate was greater than or equal to 80% to 100%) | A (A indicates that the inhibition rate was greater than or equal to 80% to 100%) | 80 to 100 | 
C=C[C@]1(C(=O)N[C@H]2C=C[C@@H](C(=O)OCCOC)C2)CC(c2cc(F)cc(C(F)(F)F)c2)=NO1 [I-443] | A (A indicates that the inhibition rate was greater than or equal to 80% to 100%) |  |  | 80 to 100 | 80 to 100 |  | A (A indicates that the inhibition rate was greater than or equal to 80% to 100%) | 80 to 100 | 
COC(=O)[C@@H]1C=C[C@H](NC(=O)C2(C)CC(c3cc(F)cc(C(F)(F)F)c3)=NO2)C1 (stereo partly shown) [I-495] |  |  |  |  |  |  |  |  | Herbicidal activity (inhibition rate class), Eleusine indica ([1]; Dosage 240 g a.i./ha): A (A indicates that the inhibition rate was greater than or equal to 80% to 100%); Herbicidal activity (inhibition rate class), Alopecurus japonicus ([2]; Dosage 240 g a.i./ha): A (A indicates that the inhibition rate was greater than or equal to 80% to 100%); Herbicidal activity (inhibition rate class), Alopecurus myosuroides ([3]; Dosage 240 g a.i./ha): A (A indicates that the inhibition rate was greater than or equal to 80% to 100%); inhibition at 120 g/ha ([9]; 120 g a.i./ha): 80 to 100%; inhibition at 120 g/ha [4]: 60 to 80%; inhibition at 120 g/ha [5]: 80 to 100%; Herbicidal activity (inhibition rate class), Lolium multiflorum ([6]; Dosage 240 g a.i./ha): A (A indicates that the inhibition rate was greater than or equal to 80% to 100%); Herbicidal activity (inhibition rate class), Leptochloa chinensis ([8]; Dosage 240 g a.i./ha): A (A indicates that the inhibition rate was greater than or equal to 80% to 100%)
C[C@]1(C(=O)N[C@H]2C=C[C@@H](C(=O)OCCBr)C2)CC(c2cc(F)cc(C(F)(F)F)c2)=NO1 [I-501] |  |  |  | 60 to 80 | 60 to 80 |  |  | 80 to 100 | Herbicidal activity (inhibition rate class), Eleusine indica ([1]; Dosage 120 g a.i./ha): A (A indicates that the inhibition rate was greater than or equal to 80% to 100%); Herbicidal activity (inhibition rate class), Leptochloa chinensis ([8]; Dosage 120 g a.i./ha): A (A indicates that the inhibition rate was greater than or equal to 80% to 100%)
COC(=O)[C@@H]1C=C[C@H](NC(=O)[C@@]2(C(F)(F)F)CC(c3cc(Cl)cc(C(F)(F)F)c3)=NO2)C1 [I-524] |  |  |  | 60 to 80 | 80 to 100 |  |  | 80 to 100 | Herbicidal activity (inhibition rate class), Eleusine indica ([1]; Dosage 120 g a.i./ha): A (A indicates that the inhibition rate was greater than or equal to 80% to 100%); Herbicidal activity (inhibition rate class), Alopecurus japonicus ([2]; Dosage 120 g a.i./ha): A (A indicates that the inhibition rate was greater than or equal to 80% to 100%); Herbicidal activity (inhibition rate class), Alopecurus myosuroides ([3]; Dosage 120 g a.i./ha): B (B indicates that the inhibition rate was greater than or equal to 60% to less than 80%); Herbicidal activity (inhibition rate class), Leptochloa chinensis ([8]; Dosage 120 g a.i./ha): A (A indicates that the inhibition rate was greater than or equal to 80% to 100%)
